# Source: PubChem BioAssay (NCI)
#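 Five concentrations, 48 hours, 96-well plates. GI50 = concentration required for 50% inhibition of growth. TGI denotes the concentration required for complete inhibition of growth.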
# How the values were obtained:
# Assay in all cases: growth of human tumour cells (NCI), 48 h
# [1] = system: KM12 colon
# [2] = system: HS 578T breast
# [3] = system: OVCAR-3 ovarian
# [4] = system: RPMI-8226 leukemia
# [5] = system: CAKI-1 renal
# [6] = system: HL-60(TB) leukemia
# [7] = system: MDA-MB-435
# [8] = system: DU-145 prostate
# [9] = system: SK-OV-3 ovarian
# [10] = system: TK-10 renal
# [11] = system: SNB-75 CNS
# [12] = system: HCT-116 colon
# [13] = system: COLO 205 colon
# [14] = system: HT29 colon
# [15] = system: SF-539 CNS
# [16] = system: SR leukemia
# [17] = system: SK-MEL-28 melanoma
# [18] = system: NCI-H460 lung
# [19] = system: SN12C renal
# [20] = system: UACC-62 melanoma
# [21] = system: OVCAR-5 ovarian
# [22] = system: SF-268 CNS
# [23] = system: SW-620 colon
# [24] = system: UO-31 renal
# [25] = system: PC-3 prostate
# [26] = system: HOP-92 NSCLC
# [27] = system: ACHN renal
# [28] = system: IGROV1 ovarian
# [29] = system: MDA-MB-231 breast
# [30] = system: A549 NSCLC
# [31] = system: CCRF-CEM leukemia
# [32] = system: A498 renal
# [33] = system: HCC-2998 colon
# [34] = system: K-562 leukemia
compound,measurement,setting,value
N=C(N)c1ccc(-c2ccc(-c3cc(Cl)cc(Cl)c3)o2)o1,GI50,[1],1650 nM
same,TGI,[1],3180 nM
same,GI50,[2],2220 nM
same,TGI,[2],5020 nM
same,GI50,[3],1700 nM
same,TGI,[3],3140 nM
same,GI50,[4],2130 nM
same,TGI,[4],4630 nM
same,GI50,[5],1700 nM
same,TGI,[5],3110 nM
same,GI50,[6],1620 nM
same,TGI,[6],3490 nM
same,GI50,[7],1610 nM
same,TGI,[7],2990 nM
same,GI50,[8],1780 nM
same,TGI,[8],3240 nM
same,GI50,[9],1800 nM
same,TGI,[9],3340 nM
same,GI50,[10],1850 nM
same,TGI,[10],3390 nM
C=C(C)[C@@H]1CC[C@]2(CO)CC[C@]3(C)[C@H](CC[C@@H]4[C@@](C)(CCCN)[C@H](C(=C)C)CC[C@]43C)[C@@H]12,GI50,[11],1480 nM
same,TGI,[11],2820 nM
same,GI50,[12],1400 nM
same,TGI,[12],3020 nM
same,GI50,[13],1630 nM
same,TGI,[13],3340 nM
same,GI50,[14],1580 nM
same,TGI,[14],3770 nM
same,GI50,[15],1630 nM
same,TGI,[15],2990 nM
same,GI50,[16],475 nM
same,TGI,[16],2140 nM
same,GI50,[17],1750 nM
same,TGI,[17],3140 nM
same,GI50,[18],1650 nM
same,TGI,[18],3240 nM
same,GI50,[1],1580 nM
same,TGI,[1],3060 nM
same,GI50,[19],1390 nM
same,TGI,[19],2750 nM
same,GI50,[3],1590 nM
same,TGI,[3],2960 nM
same,GI50,[20],1710 nM
same,TGI,[20],3090 nM
same,GI50,[21],1680 nM
same,TGI,[21],3040 nM
same,GI50,[22],1530 nM
same,TGI,[22],3060 nM
same,GI50,[4],1460 nM
same,TGI,[4],3990 nM
same,GI50,[23],1750 nM
same,TGI,[23],3510 nM
same,GI50,[5],1790 nM
same,TGI,[5],3210 nM
same,GI50,[24],1310 nM
same,TGI,[24],2580 nM
same,GI50,[25],1550 nM
same,TGI,[25],3090 nM
same,GI50,[6],1780 nM
same,TGI,[6],3610 nM
same,GI50,[26],1380 nM
same,TGI,[26],2820 nM
same,GI50,[27],1820 nM
same,TGI,[27],3210 nM
same,GI50,[28],1760 nM
same,TGI,[28],3220 nM
same,GI50,[29],1750 nM
same,TGI,[29],3190 nM
same,GI50,[7],1720 nM
same,TGI,[7],3160 nM
same,GI50,[8],1680 nM
same,TGI,[8],3060 nM
same,GI50,[30],1730 nM
same,TGI,[30],3430 nM
same,GI50,[31],1840 nM
same,TGI,[31],4760 nM
same,GI50,[32],1740 nM
same,TGI,[32],3150 nM
same,GI50,[33],1790 nM
same,TGI,[33],3300 nM
same,GI50,[34],1550 nM
same,TGI,[34],4590 nM
same,GI50,[9],1710 nM
same,TGI,[9],3180 nM
same,GI50,[10],1770 nM
same,TGI,[10],3390 nM
